Data: patent US7531555B2, “Compositions and methods for selective inhibition of nicotine acetylcholine receptors” (University of Florida Research Foundation, Inc., priority 2003, dated 2009)

Columns and labels:
Type in all cases: in vivo
[1] = system: mice; test: Tail-flick test, blockade of nicotine-induced antinociception
Protocol: (§1) Animals. Male ICR mice (20-25 g) obtained from Harlan Laboratories (Indianapolis, Ind.) were used throughout the study. Animals were housed in groups of six and had free access to food and water. Adult, male Long-Evans rats (350-460 g), obtained from Harlan (Dublin, Va.), were individually housed in a temperature-controlled (20-22° C.) environment with a 12-hour light-dark cycle (lights on at 7 a.m.). Rats were maintained within the indicated weight range by restricted post-session feeding and had ad libitum water in their home cages. Rats were drug-naive at the beginning of the study. Animals were housed in an AALAC approved facility and the study was approved by the Institutional Animal Care and Use Committee of Virginia Commonwealth University.
1. Tail-flick test. Antinociception was assessed by the tail-flick method of D'Amour and Smith (D'Amour and Smith J. P. E. T., 1941, 72:74-79) as modified by Dewey et al. (Dewey et al. J Pharmacol Exp Ther, 1970, 175:435-442). Briefly, mice were lightly restrained while a radiant heat source was shone onto the upper portion of the tail. Latency to remove the tail from the heat source was recorded for each animal. A control response (2-4 seconds) was determined for each mouse before treatment, and a test latency was determined after drug administration. In order to minimize tissue damage, a maximum latency of 10 seconds was imposed. Antinociceptive response was calculated as percent maximum possible effect (% MPE), where % MPE=[(test-control)/(10-control)]×100.
2. Hot-plate Test. […] Two control latencies at least 10 minutes apart were determined for each mouse. […] Antinociceptive response was calculated as percent maximum possible effect (% MPE), where % MPE=[(test-control)/(40-control)×100]. The reaction time was scored when the animal jumped or licked its paws. […]
(§2) The doses of nicotine used in the different tests represent approximately an ED84 (Effective dose 84%) which were determined from previous works (Damaj et al. Psychopharmacology (Berl), 1995, 117:67-73). […]

[2] = system: mice; test: Hot-plate test, blockade of nicotine-induced antinociception
Protocol: as §1
2. Hot-plate Test. Mice were placed into a 10 cm wide glass cylinder on a hot plate (Thermojust Apparatus) maintained at 55.0° C. Two control latencies at least 10 minutes apart were determined for each mouse. […] Antinociceptive response was calculated as percent maximum possible effect (% MPE), where % MPE=[(test-control)/(40-control)×100]. The reaction time was scored when the animal jumped or licked its paws. […]
as §2

[3] = system: mice; test: Locomotor activity, nicotine-induced hypomotility; conditions: for Locomotor Activity # Interrupts (Mean ± SEM): s.c.
Protocol: as §1
Locomotor activity. Mice were placed into individual Omnitech photocell activity cages (28×16.5 cm) immediately after s.c. administration of either 0.9% saline or nicotine (6.2 μmol/kg or 1 mg/kg) and were allowed to acclimate for 10 minutes. Interruptions of the photocell beams (two banks of eight cells each) were then recorded for the next 10 minutes. Data were expressed as percentage of depression where % depression=[1−(counts from nicotine-treated animals/counts from vehicle-treated animals)]×100. Mice were pretreated s.c. with either saline or TMPH 10 minutes before nicotine.
Eight to twelve mice were tested in each treatment group and each animal was tested only once.
Statistical analysis. Statistical analysis of all analgesic and in vivo studies was performed using either t-test or analysis of variance (ANOVA) with Tukey's test post hoc test when appropriate. All differences were considered significant at p<0.05. AD50 values with 95% CL for behavioral data were calculated by unweighted least-squares linear regression as described by Tallarida and Murray (Tallarida and Murray Manual of Pharmacological Calculations with Computer Programs. 1987, Springer-Verlag, New York).

[4] = s.c. injection, at the indicated doses and times

Structure (SMILES): CCCCCCC(=O)OC1CC(C)(C)NC(C)(C)C1 [TMPH, 2,2,6,6-tetramethylpiperidin-4-yl heptanoate]
- duration of TMPH effect, tail-flick ([1]; TMPH 5 mg/kg s.c., still significantly different from control): at least 4 hours
- time at which nicotine's effect started to recover, tail-flick ([1]; pretreatment with TMPH 5 mg/kg): ≤ 60 min
- antinociception by TMPH itself, tail-flick [1, 4]: did not cause antinociception
- time at which nicotine's effect recovered fully to pre-treatment value, hot-plate ([2]; pretreatment with TMPH 5 mg/kg): 60 min
- antinociception by TMPH itself, hot-plate [2, 4]: did not cause antinociception
- effect on hypomotility induced by nicotine ([3]; TMPH 20 mg/kg s.c. 15 minutes prior to nicotine (1.5 mg/kg)): failed to significantly reduce
- Locomotor Activity # Interrupts (Mean ± SEM) ([3]; TMPH (20 mg/kg)/Nicotine (1.5 mg/kg)): 397 ± 170 # Interrupts
- Locomotor Activity # Interrupts (Mean ± SEM) ([3]; TMPH (20 mg/kg)/Saline): 2031 ± 160 # Interrupts
- blockade of nicotine-induced hypomotility ([3]; TMPH @ 20 mg/kg): 0% blockade @ 20
- effect of TMPH by itself on locomotor activity [3, 4]: did not have a significant effect
